The source of these data is article PMC5118688 (Scientific Reports, 2016).

Values after ≈ are worked out from the molar mass of the structure shown. Like-named read-outs stand apart in the source and are kept apart here.

For assay [1], the system named is mAb3C9. The experiment in a line: optimized chemosynthesized antigen-based dcELISA (mAb3C9 and hapten 6-OVA). Particulars: for CR (%): Hapten 6-OVA, (IC50 of parathion-methyl/IC50 of pesticide) × 100; for LOD (IC10): mAb3C9, Hapten 6-OVA; for IC50 ± SD: mAb3C9, coating antigen Hapten 6-OVA.
Protocol: (§1) The dcELISA procedure was performed as below. First, the plate (Costar, Corning Inc., New York, USA) was coated with coating antigen (100 μL/well in 1 × PBS) for 1 h at 37 °C. Then, the wells were washed four times with PBST (1 × PBS with 0.05% (v/v) Tween-20) and blocked with 2% skim milk (200 μL/well) for 1 h at 37 °C. After washing four times, 50 μL analyte in MeOH-water solution and 50 μL mAb-HRP in PBS were added. The plate was incubated for 1 h at 37 °C and then washed four times before adding TMB solution (100 μL/well). After incubation for 15 min at 37 °C, 50 μL/well of H2SO4 (2 mol/L) was added to stop the reaction, and the absorbance was recorded at 450 nm using the Model 680 plate reader (Bio-Rad, USA).
(§2) 18 kinds of O,O-dimethyl OPs and 6 kinds of O,O-diethyl OPs were purchased from National Standards of China and used for the selectivity and sensitivity study using the optimized dcELISA procedure. […] The IC50 value and detection limit of each OP were calculated. The CR value, which was used to evaluate the selectivity of the method, was calculated using the following equation:
The conditions of assay [2]: ref Liang et al. 9; cited from earlier work.
Assay [3] concerns mAb3C9. Briefly: mimotope-based dcELISA (mAb3C9 and M20-GST-BAD/SA-HRP competitor). It counts as binding, mouse. Particulars: for CR (%): M20-GST-BAD, (IC50 of parathion-methyl/IC50 of pesticide) × 100; for LOD (IC10): mAb3C9, M20-GST-BAD; for IC50 ± SD: mAb3C9, competitor M20-GST-BAD. The method, then:
To develop a mimotope-based dcELISA, the biotinylated mimotope fusion protein was firstly assembled with streptavidin-HRP conjugate (SA-HRP) utilized the high affinity of biotin and streptavidin. The assembly process was just mixing a certain amount of biotinylated mimotope fusion protein with SA-HRP and incubating them at 4 °C overnight before use as an HRP-labeled competitor.
An innovative mimotope-based dcELISA was developed and performed as below. […] TMB solution (100 μL/well) was added and incubated for 15 min at 37 °C.
The optimal condition for mimotope-based dcELISA was optimized as chemosynthesized antigen-based dcELISA. The selectivity and sensitivity of the developed mimotope-based dcELISA for the 24 OPs were also determined under the optimum condition.

In another assay the test system is mAb4D11. Briefly: optimized mAb4D11-based dcELISA. Particulars: mAb4D11-based dcELISA.
For assay [4] the following is noted: ref Hua et al. 11; cited from earlier work.

Protocol for mAb4D11: as §1, §2

With `COc1nn(CSP(=S)(OC)OC)c(=O)s1` [Methidathion], in the assay with mAb3C9 [1], the “CR (%)” value stood at 162.9%, the “LOD (IC10)” value amounted to 0.0006 mg/L and the “IC50 ± SD” value is 0.0029 ± 0.0001 mg/L (≈ 0.00959 µM). In addition, the IC50 in assay [2] is 0.1917 mg/L (≈ 0.634 µM). In the assay on mAb3C9 [3], the “CR (%)” value was determined as 157.6%, the “LOD (IC10)” value worked out at 0.0006 mg/L and the “IC50 ± SD” value came to 0.0032 ± 0.0002 mg/L (≈ 0.0106 µM). In the assay with mAb4D11, the “CR (%)” value was less than 0.3% and the IC50 is greater than 5 mg/L.

As for `CCOP(=O)(OCC)Oc1ccc([N+](=O)[O-])cc1` [Paraoxon-ethyl], in assay [4], the IC50 was 0.1622 mg/L (≈ 0.589 µM).

Regarding `CCOP(=S)(OCC)O/N=C(\C#N)c1ccccc1` [Phoxim], in the assay on mAb3C9 [1], the “CR (%)” value was 0.2%, the “LOD (IC10)” value amounted to 0.4354 mg/L and the “IC50 ± SD” value stood at 2.6524 ± 0.112 mg/L (≈ 8.89 µM). Besides, the IC50 in assay [4] is greater than 100 mg/L. Besides, in the assay on mAb3C9 [3], the “CR (%)” value is 0.2%, the “LOD (IC10)” value turned out to be 0.4336 mg/L and the “IC50 ± SD” value was 2.5779 ± 0.0721 mg/L (≈ 8.64 µM). Besides, in the assay with mAb4D11, the “CR (%)” value is reported as 5.9%, the IC50 is 0.2441 mg/L (≈ 0.818 µM) and the LOD came out at 49.5 ng/mL.

As to `CCN(CC)c1nc(C)cc(OP(=S)(OC)OC)n1` [Pirimiphos-methyl], in the assay with mAb3C9 [1], the “CR (%)” value came to 6.0%, the “LOD (IC10)” value is 0.0156 mg/L and the “IC50 ± SD” value is 0.0774 ± 0.0033 mg/L (≈ 0.253 µM). Also, in the assay on mAb3C9 [3], the “CR (%)” value turned out to be 6.0%, the “LOD (IC10)” value is 0.0222 mg/L and the “IC50 ± SD” value stood at 0.0837 ± 0.0038 mg/L (≈ 0.274 µM). For the same compound, in the assay on mAb4D11, the “CR (%)” value is listed as 23.4%, the IC50 came to 0.0621 mg/L (≈ 0.203 µM) and the LOD was 9.1 ng/mL.

Take `COP(=O)(OC)O/C(=C\Cl)c1cc(Cl)c(Cl)cc1Cl` [Tetrachlorvinphos]: in the assay with mAb3C9 [1], the “CR (%)” value is listed as 8.6%, the “LOD (IC10)” value was found to be 0.0089 mg/L and the “IC50 ± SD” value amounted to 0.0544 ± 0.0021 mg/L (≈ 0.149 µM). In the assay on mAb3C9 [3], the “CR (%)” value is 8.5%, the “LOD (IC10)” value stood at 0.0112 mg/L and the “IC50 ± SD” value worked out at 0.0597 ± 0.0033 mg/L (≈ 0.163 µM). Also, in the assay with mAb4D11, the “CR (%)” value was 0.6%, the IC50 is 2.4313 mg/L (≈ 6.64 µM) and the LOD is 536.3 ng/mL.

Turning to `COP(=S)(OC)Oc1ccc([N+](=O)[O-])cc1Cl` [Isochlorthion], the IC50 in assay [4] was 0.5766 mg/L (≈ 1.94 µM).

For the compound `CCOP(=S)(OCC)Oc1cc(C)nc(C(C)C)n1` [Diazinon], in the assay with mAb3C9 [1], the “CR (%)” value is listed as 0.3%, the “LOD (IC10)” value amounted to 0.3917 mg/L and the “IC50 ± SD” value came to 1.8124 ± 0.0461 mg/L (≈ 5.95 µM). In the assay on mAb3C9 [3], the “CR (%)” value was determined as 0.2%, the “LOD (IC10)” value is 0.4123 mg/L and the “IC50 ± SD” value was 2.0648 ± 0.0417 mg/L (≈ 6.78 µM). In the assay on mAb4D11, the “CR (%)” value stood at 5.0%, the IC50 was found to be 0.2883 mg/L (≈ 0.947 µM) and the LOD is 73.2 ng/mL.

In the case of `CCOP(=S)(OCC)SCn1nnc2ccccc2c1=O` [Azinphos-ethyl], in the assay with mAb3C9 [1], the “CR (%)” value came out at 4.9%, the “LOD (IC10)” value was 0.0216 mg/L and the “IC50 ± SD” value was 0.0953 ± 0.0042 mg/L (≈ 0.276 µM). Also, in the assay on mAb3C9 [3], the “CR (%)” value came to 4.7%, the “LOD (IC10)” value came to 0.0264 mg/L and the “IC50 ± SD” value amounted to 0.1074 ± 0.0032 mg/L (≈ 0.311 µM). Moreover, in the assay on mAb4D11, the “CR (%)” value is given as less than 0.3% and the IC50 is greater than 5 mg/L.

With `COP(=O)(OC)Oc1ccc([N+](=O)[O-])cc1` [Paraoxon-methyl], in the assay with mAb3C9 [1], the “CR (%)” value is on record as 2.0%, the “LOD (IC10)” value is 0.0524 mg/L and the “IC50 ± SD” value worked out at 0.231 ± 0.0121 mg/L (≈ 0.935 µM). Further, the IC50 in assay [4] is 0.1187 mg/L (≈ 0.48 µM). For the same compound, in the assay with mAb3C9 [3], the “CR (%)” value is listed as 1.7%, the “LOD (IC10)” value came out at 0.0632 mg/L and the “IC50 ± SD” value stood at 0.2949 ± 0.0093 mg/L (≈ 1.19 µM). Besides, in the assay with mAb4D11, the “CR (%)” value stood at 0.5%, the IC50 came to 2.6433 mg/L (≈ 10.7 µM) and the LOD is 512.5 ng/mL.

For the compound `COP(=S)(OC)Oc1ccc(C#N)cc1` [Cyanophos], in the assay on mAb3C9 [1], the “CR (%)” value turned out to be 152.8%, the “LOD (IC10)” value worked out at 0.0006 mg/L and the “IC50 ± SD” value was found to be 0.0031 ± 0.0002 mg/L (≈ 0.0127 µM). For the same compound, the IC50 in assay [4] was 0.0203 mg/L (≈ 0.0835 µM). Also, in the assay with mAb3C9 [3], the “CR (%)” value is on record as 146.2%, the “LOD (IC10)” value is 0.0007 mg/L and the “IC50 ± SD” value is 0.0035 ± 0.0001 mg/L (≈ 0.0144 µM). Also, in the assay on mAb4D11, the “CR (%)” value was determined as 82.5%, the IC50 came out at 0.0176 mg/L (≈ 0.0724 µM) and the LOD stood at 2.3 ng/mL.
